Laboratory results as given in ChEMBL document CHEMBL1201862, “PubChem BioAssay data set” (2004).
The source made the active and inactive calls.

What was measured:
[1] = viability of HCT116 lacking mutant beta-catenin – cell-based, human colon tumor, dose response (AID 1045); assay type: functional;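 note: HCT116 colon tumor cells with beta catenin knocked out; cells exposed to compound for 60 hours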
[2] = viability of PTEN-deleted HCT116 cells – cell-based, HCT116 PTEN knockout, dose response (AID 1047); assay type: functional;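 note: HCT116 colon tumor cells with PTEN knocked out; cells exposed to compound for 60 hours before readout; potency for loss of cell viability measured by luminescence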
[3] = microbe, parasite or virus in culture; assay type: functional; conditions: Mycobacterium tuberculosis
[4] = Luminescence Cell-Based Dose Retest to Confirm Inhibitors of Cancer Stem Cells. [Related pubchem assays (depositor defined):AID2717, AID2721]; assay type: functional; conditions: Homo sapiens
Protein skinhead-1 = target: T1, Protein skinhead-1 (Caenorhabditis elegans, UniProt P34707); assay type: functional
T1 sequence (P34707 whole entry): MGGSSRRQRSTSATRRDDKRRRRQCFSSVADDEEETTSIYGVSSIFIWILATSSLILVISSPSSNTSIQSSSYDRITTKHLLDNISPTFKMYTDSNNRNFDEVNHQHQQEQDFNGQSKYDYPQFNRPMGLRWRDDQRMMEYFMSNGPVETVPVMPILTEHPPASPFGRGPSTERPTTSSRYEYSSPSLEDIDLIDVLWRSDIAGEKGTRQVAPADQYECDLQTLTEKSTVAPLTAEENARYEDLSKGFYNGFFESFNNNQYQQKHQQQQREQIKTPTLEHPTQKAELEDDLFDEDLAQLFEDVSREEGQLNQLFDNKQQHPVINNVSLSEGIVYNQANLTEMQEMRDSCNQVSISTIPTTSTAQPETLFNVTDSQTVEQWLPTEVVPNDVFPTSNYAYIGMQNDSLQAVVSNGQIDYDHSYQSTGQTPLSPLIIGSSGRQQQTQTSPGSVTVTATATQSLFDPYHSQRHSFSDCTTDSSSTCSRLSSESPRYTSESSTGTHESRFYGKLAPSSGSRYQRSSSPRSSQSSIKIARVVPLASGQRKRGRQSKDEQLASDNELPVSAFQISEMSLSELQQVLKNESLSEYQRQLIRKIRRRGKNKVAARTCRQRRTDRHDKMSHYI

Cytochrome P450 3A4 = Cytochrome P450 3A4 (Homo sapiens, UniProt P08684); conditions: Potency;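 note: confirmatory qHTS run detecting inhibitors and substrates of CYP3A4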
Chain of Cytochrome P450 3A4 (P08684 whole entry): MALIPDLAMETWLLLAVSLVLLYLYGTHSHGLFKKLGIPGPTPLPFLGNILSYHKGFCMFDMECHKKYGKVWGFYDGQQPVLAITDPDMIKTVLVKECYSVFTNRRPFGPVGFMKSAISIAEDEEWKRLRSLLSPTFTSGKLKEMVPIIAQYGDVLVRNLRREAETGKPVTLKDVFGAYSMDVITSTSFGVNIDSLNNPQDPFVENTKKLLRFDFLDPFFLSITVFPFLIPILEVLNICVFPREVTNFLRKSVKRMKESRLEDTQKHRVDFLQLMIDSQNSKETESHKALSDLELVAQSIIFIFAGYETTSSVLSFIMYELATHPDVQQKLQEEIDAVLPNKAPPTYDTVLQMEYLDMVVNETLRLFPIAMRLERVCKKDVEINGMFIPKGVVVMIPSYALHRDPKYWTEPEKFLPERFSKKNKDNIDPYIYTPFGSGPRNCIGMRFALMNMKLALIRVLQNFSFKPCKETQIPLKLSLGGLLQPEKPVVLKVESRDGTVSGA

cells [5] = assay type: functional, cell-based
cells [6] = assay type: functional, cell-based; remark: listed apart in the source
cells [7] = assay type: functional
[8] = blockers of HIV-1 envelope-mediated cell-cell fusion – cherry-pick, dose response (AID 652057); assay type: functional, cell-based
[9] = HIV-1 AD8 envelope cell-cell fusion blockers – cherry-pick, dose response (AID 652062); assay type: functional, cell-based;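 note: luciferase signal from cell-cell fusion driven by HIV-1 clade B AD8 Env; potency is for inhibitors of fusion seen as a drop in luminescence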
INS1 = test: INS-1E survival protection against cytokine death – cell-based, luminescence, retest, dose response (AID 449756); assay type: functional; conditions: Rattus norvegicus;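 note: cell death triggered by IL-1 beta plus TNF-alpha plus IFN-gamma mixture; protective hits raise ATP signal compared with cytokine alone wells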
Streptokinase A = target: T2, Streptokinase A (Streptococcus pyogenes serotype M1, UniProt P10520); test: viability-normalized secreted streptokinase activity reduction – plasminogen activation absorbance, OD405, dose response (AID 1914); assay type: functional, Streptococcus pyogenes M1 GAS;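 note: secreted streptokinase activity via plasminogen activation per viability signal from cell pellet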
T2 sequence (P10520 whole entry): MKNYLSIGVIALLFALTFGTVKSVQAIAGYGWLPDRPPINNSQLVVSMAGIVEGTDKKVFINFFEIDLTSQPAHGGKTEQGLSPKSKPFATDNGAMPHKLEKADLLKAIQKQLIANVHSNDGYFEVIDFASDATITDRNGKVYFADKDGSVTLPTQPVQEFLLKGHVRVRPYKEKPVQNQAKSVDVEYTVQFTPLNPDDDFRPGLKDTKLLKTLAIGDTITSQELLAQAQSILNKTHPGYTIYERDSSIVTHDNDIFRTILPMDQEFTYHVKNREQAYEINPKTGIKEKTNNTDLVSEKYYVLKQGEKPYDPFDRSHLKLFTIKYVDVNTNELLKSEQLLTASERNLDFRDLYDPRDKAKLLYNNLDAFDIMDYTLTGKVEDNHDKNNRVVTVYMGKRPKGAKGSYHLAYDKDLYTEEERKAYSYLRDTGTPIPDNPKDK

Streptococcus = test: GAS UMAA2166 growth inhibition – luminescence, BacTiterGlo, counter-screen for streptokinase expression inhibitor project, dose response (AID 1915); assay type: functional, organism-based;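 note: potency for reduction of bacterial viability or growth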
[10] = test system: Streptococcus sp. 'group A'; test: Streptococcus pyogenes SK(-)GAS viability under kanamycin – luminescence, BacTiterGlo, confirmation, counter-screen for streptokinase expression inhibitor project, dose response (AID 1900); assay type: functional, organism-based

## CCOC(=O)c1cc2c(N)c(C(=O)c3cc(C#N)c(SC)nc3C)sc2nc1C
[1]
  EC50: 8.35 µM (active)
[2]
  EC50: 8.22 µM (active)

## Cc1nn(Cc2ccccc2)c(C)c1C(=O)OCC(=O)c1cc(C)n(CC(F)(F)F)c1C
[3]
  CC50: > 40 µM (active)
[4]
  AC50: 4.47 µM (active)

## c1csc(-c2ccc3ccccc3n2)c1
Protein skinhead-1
  IC50: 35.1 µM (active)

## CCCn1c(-c2ccc(F)cc2)nc2c(N3CCC(N(C)C)C3)nc(C)nc21 (configuration not stated)
Cytochrome P450 3A4
  AC50: 15.8 µM (inconclusive)

## Cc1cc(NC(=O)C2CC(=O)N(c3cccc(C)c3C)C2)no1 (configuration not stated)
Cells [5]
  EC50: > 350 µM (not active)
Cells [6]
  EC50: > 350 µM (not active)

## O=C(NCCCN1CCOCC1)c1cc(-c2ccccc2F)no1
Cells [5]
  EC50: 113 µM (active)
Cells [6]
  EC50: > 350 µM (not active)

## CN=C(S)N=Nc1c(O)[nH]c2ccc(C(C)C)cc12
[1]
  EC50: 17.6 µM (active)
[2]
  EC50: 22.4 µM (active)

## Cc1nn(Cc2ccccc2)c(C)c1NC(=O)c1cc2nc(-c3ccco3)cc(C(F)(F)F)n2n1
[3]
  CC50: > 40 µM (active)

## Fc1ccc(-c2csc(-c3ccncc3)n2)cc1
Protein skinhead-1
  IC50: 10.5 µM (active)

## CCC(=O)Nc1cccc(C(=O)/C=C/c2cc(Br)ccc2OC)c1
[1]
  EC50: 0.933 µM (active)
[2]
  EC50: 1.3 µM (active)

## O=C(CCSc1nnc(-c2ccccc2)o1)N1CCOCC1
Cells [7]
  IC50: 20.7 µM (active)

## Nc1c(C(=O)Nc2cccc(Cl)c2Cl)sc2nc(-c3cccnc3)ccc12
[1]
  EC50: 11 µM (active)
[2]
  EC50: 5.65 µM (active)

## CC(C)n1c(NCCc2ccccc2)nc2c1c(=O)n(C)c(=O)n2C
[8]
  AC50: 21.2 µM (active)
[9]
  AC50: 17.9 µM (active)

## CC(C)(C)Sc1ccc2nc3c(n2c1)CCCC3
INS1
  AC50: 14.7 µM (active)
Cells [7]
  IC50: 29 µM (active)

## c1ccc(Nc2nc(N3CCCCC3)nc(N3CCNCC3)n2)cc1
[3]
  CC50: 23.5 µM (active)
[1]
  EC50: 14.3 µM (active)
[2]
  EC50: 12.7 µM (active)

## COc1ccc(N(CC(=O)Nc2cc(Cl)ccc2C)S(=O)(=O)c2c(C)n[nH]c2C)cc1
[3]
  CC50: > 40 µM (active)

## C/C(Cl)=C\COc1cc(C)nc2c(Br)cccc12
[3]
  CC50: > 40 µM (active)

## Cc1c(C(=O)N2CCCCC2)c(S(=O)(=O)NCCc2ccc(Cl)cc2)c(C)n1C
Cells [5]
  EC50: > 350 µM (not active)
Cells [6]
  EC50: > 350 µM (not active)

## O=c1c(O)c(-c2cccs2)oc2ccccc12
Streptokinase A
  EC50: > 150 µM (not active)
[3]
  CC50: > 40 µM (active)
Streptococcus
  EC50: > 150 µM (not active)
[10]
  EC50: 3.69 µM (active)

## Cc1ccc(C)c(SCC(=O)OCC(=O)N2CC(C)OC(C)C2)c1 (configuration not stated)
Cells [5]
  EC50: > 350 µM (not active)
Cells [6]
  EC50: > 350 µM (not active)

## COc1ccc(C(=O)Nc2cccc(OC(=O)c3ccc(C)c(C)c3)c2)cc1
Protein skinhead-1
  IC50: > 100 µM (inactive)

## O=C(NC1CC2CCC1C2)C1COc2ccccc2O1 (configuration not stated)
Cells [7]
  IC50: > 50 µM (active)

## Cc1cc(NC2CCCCC2)nc(-c2ccccc2O)n1
[3]
  CC50: > 40 µM (active)

## Cc1cc(Nc2ccccc2)cc(=O)n1C
Cells [5]
  EC50: > 350 µM (not active)
Cells [6]
  EC50: > 350 µM (not active)

## Clc1ccc(SCc2cc(-c3ccc(Cl)cc3)on2)cc1
Protein skinhead-1
  IC50: > 100 µM (inactive)
